Measured values from ChEMBL document CHEMBL4145540 (Eur J Med Chem, 2018).
pIC50: −log10 of the molar value. Active and inactive are the calls of the source. The calls are words filed in the database; no cut-off is given here.

Columns and labels:
HT-29 = experiment: Antiproliferative activity against human HT-29 cells after 2 days by MTT assay; format: functional, cell-based; details: HT-29, 48 h
MCF7 = experiment: Antiproliferative activity against human MCF7 cells after 2 days by MTT assay; format: functional, cell-based; details: MCF7, 48 h
HeLa = experiment: Antiproliferative activity against human HeLa cells after 2 days by MTT assay; format: functional, cell-based; details: 48 h
A549 [1] = experiment: Antiproliferative activity against human A549 cells after 2 days by MTT assay; format: functional, cell-based; details: A549, 48 h
HL-60 = experiment: Antiproliferative activity against human HL60 cells after 2 days by MTT assay; format: functional, cell-based; details: HL-60, 48 h
HMEC-1 = experiment: Antiproliferative activity against HMEC1 cells after 2 days by MTT assay; format: functional, cell-based; details: Homo sapiens, HMEC-1, 48 h
HEK293 = experiment: Antiproliferative activity against HEK293 cells after 2 days by MTT assay; format: cell-based; details: Homo sapiens, HEK293, 48 h
MDA-MB-231 = experiment: Antiproliferative activity against human MDA-MB-231 cells after 3 days by coulter counting method; format: functional, cell-based; details: MDA-MB-231, 72 h
A549 [2] = experiment: Cell cycle arrest in human A549 cells assessed as accumulation at sub-G0 phase at 70 nM after 20 hrs by propidium iodide staining based flow cytometry (reference value: 6.6 +/- 0.1%); format: functional
A549 [3] = experiment: Cell cycle arrest in human A549 cells assessed as accumulation at G0/G1 phase at 70 nM after 20 hrs by propidium iodide staining based flow cytometry (reference value: 66 +/- 1%); format: functional
A549 [4] = experiment: Cell cycle arrest in human A549 cells assessed as accumulation at S phase at 70 nM after 20 hrs by propidium iodide staining based flow cytometry (reference value: 16 +/- 1%); format: functional
A549 [5] = experiment: Cell cycle arrest in human A549 cells assessed as accumulation at G2/M phase at 70 nM after 20 hrs by propidium iodide staining based flow cytometry (reference value: 11 +/- 1%); format: functional
Bos taurus = organism: Bos taurus; experiment: Inhibition of calf brain tubulin polymerization after 60 mins by turbidimetric method
A549 [6] = experiment: Cell cycle arrest in human A549 cells assessed as accumulation at sub-G0 phase at 45 nM after 20 hrs by propidium iodide staining based flow cytometry (reference value: 6.6 +/- 0.1%); format: functional
A549 [7] = experiment: Cell cycle arrest in human A549 cells assessed as accumulation at G0/G1 phase at 45 nM after 20 hrs by propidium iodide staining based flow cytometry (reference value: 66 +/- 1%); format: functional
A549 [8] = experiment: Cell cycle arrest in human A549 cells assessed as accumulation at S phase at 45 nM after 20 hrs by propidium iodide staining based flow cytometry (reference value: 16 +/- 1%); format: functional
A549 [9] = experiment: Cell cycle arrest in human A549 cells assessed as accumulation at G2/M phase at 45 nM after 20 hrs by propidium iodide staining based flow cytometry (reference value: 11 +/- 1%); format: functional
A549 [10] = experiment: Induction of apoptosis in human A549 cells at 100 nM after 24 hrs by Annexin V-FITC/propidium iodide staining based flow cytometry (reference value: 28%); format: functional
A549 [11] = experiment: Induction of apoptosis in human A549 cells at 10 nM after 24 hrs by Annexin V-FITC/propidium iodide staining based flow cytometry (reference value: 28%); format: functional
A549 [12] = experiment: Induction of apoptosis in human A549 cells after 24 hrs by Annexin V-FITC/propidium iodide staining based flow cytometry; format: functional, cell-based

Row | SMILES | pIC50 (HT-29) | pIC50 (MCF7) | pIC50 (HeLa) | pIC50 (A549 [1]) | pIC50 (HL-60) | pIC50 (HMEC-1) | pIC50 (HEK293) | pIC50 (MDA-MB-231) | Activity (A549 [2]) | Activity (A549 [3]) | Activity (A549 [4]) | Activity (A549 [5]) | inhibition (Bos taurus) | Activity (A549 [6]) | Activity (A549 [7]) | Activity (A549 [8]) | Activity (A549 [9]) | Activity (A549 [10]) | Activity (A549 [11]) | Activity (A549 [12])
1 | COc1ccc(/C=C\c2cc(OC)c(OC)c(OC)c2)cc1NC(=O)Oc1cccc(Cl)c1C | 7.33 | 7.41 | 7.64 | 6.85 | 7.15 | 7.70 | 7.85 | 7.85 | 20% | 24% | 18% | 39% |  |  |  |  |  |  |  | 
2 | COc1ccc(/C=C\c2cc(OC)c(OC)c(OC)c2)cc1NC(=O)Oc1ccc(C)c(Cl)c1 | 7.64 | 8.21 | 8.43 | 7.05 | 8.74 | 8.22 | 8.15 | 7.86 |  |  |  |  | Active | 29% | 21% | 14% | 36% | 46% | 23% | Dose-dependent effect
